Measured values: patent US20210301038A1, “POLYSIALIC ACID AND DERIVATIVES THEREOF, PHARMACEUTICAL COMPOSITION AND METHOD OF PRODUCING POLYSIALIC ACID” (Medizinische Hochschule Hannover (MHH), priority 2018, published 2021)

Test system: C57BL/6J mice with intra-mPFC endoNF injection
Assay: Novel object recognition test before and after intra-mPFC endoNF injection
Type: in vivo, mouse
Details: 30 min before encoding; sarcosine 600 mg/kg i.p. (d2); DP12 (d5) and DP1 (d6) 1 mg/kg intranasally
Procedure: Guide cannulas were fabricated using stainless steel tubing with outer/inner diameter Ø 0.711/0.483 mm (Science Products, Germany). Dummy cannulas were made from entomological pins, size 2, Ø 0.41 mm (FST, Germany). Chronic implantation of cannulas into the mPFC in mice was performed as described previously for intrahippocampal injections (Kochlamazashvili et al., 2012; Senkov et al., 2015; Senkov et al., 2006).
Acute injection of endoNF in vivo was done under a short isoflurane anesthesia. For intra-mPFC injection, we used a digitally controlled infusion system (UltraMicroPump, UMP3, and Micro4 Controller, WPI, USA) fed with a 10 μl-Hamilton syringe and NanoFil 135 μm (35 GA) beveled needle. The thin (135 μm) part of the needle went into the mouse brain during injection, whereas its thick part (430 μm) fit perfectly in the guide cannula (inside 483 μm). Injections were performed as follows: 1) a mouse was anesthetized with 1-3% isoflurane as during implantation; 2) it was put into the stereotaxic frame; 3) the dummy cannula was gently removed from the left guide cannula; 4) a NanoFil injecting needle was carefully placed inside of the guide cannula and advanced further down until reaching the marker (made with a permanent pen at the needle shank (430 μm) to visualize the point when the needle should reach the surface of the brain coming out of the guide cannula (equal to the length of guide cannula); 5) once the marker was reached, a slow (10 μm increment) step dial was used to deepen the needle into the brain; 6) endoNF (2 μg/μl) or vehicle was injected with the following settings: 250 nl per site as deep as 1.5 and 2.25 mm from the brain surface (total injection volume per hemisphere 500 nl, injection rate of 3 nl/s); 7) after injection was complete (˜5 min), the needle was left in the injection site for another 5 min and then gently removed; 8) the dummy cannula was then put back to its place; 9) the same procedure was performed for the right hemisphere. The whole injection process took approximately 20-25 min under isoflurane anesthesia, and the mice recovered rather quickly, starting to move in approximately 2-3 min after being returned to their home cages. Complete recovery of a mouse after such short anesthesia usually occurs within 3-5 min. After injection, mice were returned to their animal facility. Behavior experiments started on the day after injection at approximately the same time, so that we could perform cognitive tests 24 hours after injection.
A white open field arena (50×50×30 cm) was used in the novel object recognition task. All behavior was video recorded and analyzed automatically by software (ANY-maze, version 4.99, Stoelting Co., Wood Dale, Ill.). […]

(α(2→8)Neu5Ac)12 [DP12]
novel object recognition after intra-mPFC endoNF injection: significantly improved novel object recognition
